The assay deals with T1, HPK1 (Homo sapiens, UniProt Q92918).
T1 construct: A HiBiT tag was introduced by CRISPR on the N terminus of HPK1 in Jurkat cells; host or cells: Jurkat cells (ATCC TIB-152), monoclonal line with CRISPR knock-in of HiBiT at the endogenous HPK1 locus
Description: HPK1 Cellular HiBit Degradation Assay. In kind it is cell-based. The conditions noted are these: HiBiT HPK1 Jurkat cells, 24 hrs; for DC50: concentration at which 50% of HPK1 was remaining, read-out: DC50 Category; for Dmax: Jurkat, maximum degradation vs DMSO vehicle control, read-out: Dmax Category. How it is done:
HPK1 Cellular HiBit Degradation Assay
A HiBiT tag was introduced by CRISPR on the N terminus of HPK1 in Jurkat cells (ATCC® TIB-152) to allow quantitation of HPK1 protein levels in a monoclonal human cell line. Cells were plated at 1×10^6 cells/mL, 30 uL/well (3×10^4 cells/well) in complete RPMI 1640 (10% heat inactivated FBS, 1% L-glutamine) in 384-well assay plates (Corning, cat. no. 3570). HPK1 chimeric targeting molecules (CTMs) were added in an 11 point dilution series (11-point, 3.16-fold) with a final assay concentration range of 10 uM to 0.1 nM. The parental Jurkat cell line, with no HiBiT insertion, was included in the assay as a background control. Cell treated with a DMSO vehicle control was used to determine the maximum signal defining 100% HPK1 in the cell. Cells were incubated for 24 hrs at 37° C./5% CO2. Following incubation, 30 uL of complete Nano-Glo HiBiT Lytic Detection Reagent (Promega cat. no. N3040) was added. Cells were incubated for 10 min at room temperature and luminescence was read on an EnVision plate reader (Perkin Elmer, 0.1 sec per well). Viability was assessed in the same plate using Cell Titer Fluor (Promega) and read on an EnVision plate reader to ensure results were not the effect of cytotoxicity. Percent HPK1 remaining per sample was calculated as follows:
[formula] % HPK1 remaining values were plotted as a function of compound concentration and curves were fit using the Prism (GraphPad) equation “log(inhibitor) vs response−Variable slope (four parameters)”. Dmax values were calculated by identifying the lowest % remaining and subtracting from 100. DC50 values were determined by extrapolating from the curve the concentration at which 50% of HPK1 was remaining based on the DMSO control.
HiBiT HPK1 Jurkat cell lines were used to evaluate the total protein levels of HPK1 in a robust human cellular high throughput format. The level of HPK1 remaining following treatment with HPK1 CTMs is reported as Dmax (maximum degradation) achieved at 24 hours when compared to vehicle treated controls. […] These decreases were not a result of cytotoxicity measured by a viability assessment.
In general terms: The HiBiT peptide binds its large partner to form an active luciferase.

One may read the DC50 as the midpoint of the concentration-degradation curve. A word on the Dmax: it is the largest share of the target that was removed.

T1 sequence (Q92918 whole entry): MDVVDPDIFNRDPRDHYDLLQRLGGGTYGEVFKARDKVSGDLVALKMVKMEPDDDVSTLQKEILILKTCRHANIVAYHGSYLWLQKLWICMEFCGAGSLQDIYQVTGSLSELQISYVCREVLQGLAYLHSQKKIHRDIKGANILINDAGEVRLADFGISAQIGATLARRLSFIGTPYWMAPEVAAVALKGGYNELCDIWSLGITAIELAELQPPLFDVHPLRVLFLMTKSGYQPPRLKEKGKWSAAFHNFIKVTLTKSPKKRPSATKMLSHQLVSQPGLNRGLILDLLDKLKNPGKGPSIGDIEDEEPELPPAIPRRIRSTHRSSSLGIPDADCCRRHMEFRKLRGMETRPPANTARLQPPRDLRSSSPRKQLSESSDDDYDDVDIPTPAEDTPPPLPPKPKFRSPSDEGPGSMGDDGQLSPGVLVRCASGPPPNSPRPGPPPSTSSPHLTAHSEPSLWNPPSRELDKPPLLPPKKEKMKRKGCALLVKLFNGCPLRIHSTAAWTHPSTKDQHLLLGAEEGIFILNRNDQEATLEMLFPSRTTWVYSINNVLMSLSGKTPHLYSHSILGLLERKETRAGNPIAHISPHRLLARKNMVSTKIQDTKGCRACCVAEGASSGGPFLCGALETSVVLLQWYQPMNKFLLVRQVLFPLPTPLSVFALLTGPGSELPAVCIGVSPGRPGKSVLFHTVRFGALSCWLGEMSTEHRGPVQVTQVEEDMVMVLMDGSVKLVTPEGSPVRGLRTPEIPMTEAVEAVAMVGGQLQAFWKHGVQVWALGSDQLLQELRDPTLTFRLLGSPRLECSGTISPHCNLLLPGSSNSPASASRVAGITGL

Regarding `CC(C)n1cnc2cc(-c3ccc4c(c3)N([C@H]3C[C@@H](N5CCCCC5)C3)C(=O)C43CCN(C(=O)[C@]4(C)CCN(C(=O)C5CCN(c6ccc(C7CCC(=O)NC7=O)cc6F)CC5)C4)CC3)nc(NC3CC3)c21` (mixture of isomers) [Example 147, (3RS)-3-(4-{4-[(3R)-3-({6-[4-(cyclopropylamino)-3-(propan-2-yl)-3H-imidazo[4,5-c]pyridin-6-yl]-2-oxo-1-[(1S,3S)-3-(piperidin-1-yl)cyclobutyl]-1,2-dihydrospiro[indole-3,4′-piperidin]-1′-yl}carbonyl)-3-methylpyrrolidine-1-carbonyl]piperidin-1-yl}-3-fluorophenyl)piperidine-2,6-dione], the DC50 fell in the range of 100 to 500 nM and the Dmax is more than 85%.
The matching figures for `CC(C)n1cnc2cc(-c3ccc4c(c3)N([C@H]3C[C@@H](N5CCCCC5)C3)C(=O)C43CCN(C(=O)c4ccc(C(=O)N(C)C5CCN(c6ccc(C7CCC(=O)NC7=O)cn6)CC5)cc4)CC3)nc(Nc3ccccc3F)c21` (mixture of isomers) [Example 141, N-(1-{5-[(3RS)-2,6-dioxopiperidin-3-yl]pyridin-2-yl}piperidin-4-yl)-4-[(6-{4-[(2-Fluorophenyl)amino]-3-(propan-2-yl)-3H-imidazo[4,5-c]pyridin-6-yl}-2-oxo-1-[(1S,3S)-3-(piperidin-1-yl)cyclobutyl]-1,2-dihydrospiro[indole-3,4′-piperidin]-1′-yl)carbonyl]-N-methylbenzamide]: 500 to 1000 nM and 50 to 70%.
The matching figures for `CC(C)n1cnc2cc(-c3ccc4c(c3)N([C@H]3C[C@@H](N5CCCCC5)C3)C(=O)C43CCN(C(=O)C4(C)CCN(C(=O)C5CCN(c6ccc(C7CCC(=O)NC7=O)cc6)CC5)CC4)CC3)nc(NC3CCOCC3)c21` (mixture of isomers) [Example 196, (3RS)-3-[4-(4-{4-methyl-4-[(6-{4-[(oxan-4-yl)amino]-3-(propan-2-yl)-3H-imidazo[4,5-c]pyridin-6-yl}-2-oxo-1-[(1S,3S)-3-(piperidin-1-yl)cyclobutyl]-1,2-dihydrospiro[indole-3,4′-piperidin]-1′-yl)carbonyl]piperidine-1-carbonyl}piperidin-1-yl)phenyl]piperidine-2,6-dione]: less than 100 nM and 70 to 85%.
With `CC(C)n1cnc2cc(-c3ccc4c(c3)N([C@H]3C[C@@H](N5CCCCC5)C3)C(=O)C43CCN(C(=O)C4(C)CCN(C(=O)CC5CCN(c6ccc(C7CCC(=O)NC7=O)cn6)CC5)CC4)CC3)nc(NC3CC3)c21` (mixture of isomers) [Example 221, (3RS)-3-[6-(4-{2-[4-({6-[4-(cyclopropylamino)-3-(propan-2-yl)-3H-imidazo[4,5-c]pyridin-6-yl]-2-oxo-1-[(1S,3S)-3-(piperidin-1-yl)cyclobutyl]-1,2-dihydrospiro[indole-3,4′-piperidin]-1′-yl}carbonyl)-4-methylpiperidin-1-yl]-2-oxoethyl}piperidin-1-yl)pyridin-3-yl]piperidine-2,6-dione], the DC50 was less than 100 nM and the Dmax lay in the range of 70 to 85%.
As to `CC(C)n1cnc2cc(-c3ccc4c(c3)N([C@H]3C[C@@H](N5CCCCC5)C3)C(=O)C43CCN(C(=O)C4(C)CCN(C(=O)C5CCN(c6ccc7c(c6)C(=O)N(C6CCC(=O)NC6=O)C7=O)CC5)CC4)CC3)nc(NC3CC3)c21` (stereo partly shown) [Example 121, 5-{4-[4-({6-[4-(cyclopropylamino)-3-(propan-2-yl)-3H-imidazo[4,5-c]pyridin-6-yl]-2-oxo-1-[(1s,3s)-3-(piperidin-1-yl)cyclobutyl]-1,2-dihydrospiro[indole-3,4′-piperidin]-1′-yl}carbonyl)-4-methylpiperidine-1-carbonyl]piperidin-1-yl}-2-(2,6-dioxopiperidin-3-yl)-2,3-dihydro-1H-isoindole-1,3-dione], the DC50 is 500 to 1000 nM and the Dmax fell in the range of 50 to 70%.
For the compound `CC(C)n1cnc2cc(-c3ccc4c(c3)N([C@H]3C[C@@H](N5CCCCC5)C3)C(=O)C43CCN(C(=O)C4(C)CCN(C(=O)[C@H]5CC[C@H](Oc6ccc(N7CCC(=O)NC7=O)cn6)CC5)CC4)CC3)nc(Nc3ccncc3F)c21` [Example 109, 1-(6-{[(1R,4R)-4-{4-[(6-{4-[(3-Fluoropyridin-4-yl)amino]-3-(propan-2-yl)-3H-imidazo[4,5-c]pyridin-6-yl}-2-oxo-1-[(1S,3S)-3-(piperidin-1-yl)cyclobutyl]-1,2-dihydrospiro[indole-3,4′-piperidin]-1′-yl)carbonyl]-4-methylpiperidine-1-carbonyl}cyclohexyl]oxy}pyridin-3-yl)-1,3-diazinane-2,4-dione], the DC50 is 100 to 500 nM and the Dmax was in the range of 50 to 70%.
The matching figures for `CC(C)n1cnc2cc(-c3ccc4c(c3)N([C@H]3C[C@@H](N5CCCCC5)C3)C(=O)C43CCN(C(=O)[C@@H]4CCN(C(=O)[C@H]5CC[C@H](N(C)c6ccc(C7CCC(=O)NC7=O)cn6)CC5)C4)CC3)nc(Nc3ccccc3F)c21` (mixture of isomers) [Example 127, (3RS)-3-(6-{METHYL [(1R,4R)-4-[(3R)-3-[(6-{4-[(2-fluorophenyl)amino]-3-(propan-2-yl)-3H-imidazo[4,5-c]pyridin-6-yl}-2-oxo-1-[(1S,3S)-3-(piperidin-1-yl)cyclobutyl]-1,2-dihydrospiro[indole-3,4′-piperidin]-1′-yl)carbonyl]pyrrolidine-1-carbonyl]cyclohexyl]amino}pyridin-3-yl)piperidine-2,6-dione]: less than 100 nM and more than 85%.
Regarding `CC(C)n1cnc2cc(-c3ccc4c(c3)N([C@H]3C[C@@H](N5CCCCC5)C3)C(=O)C43CCN(C(=O)[C@H]4CCN(C(=O)[C@H]5CC[C@@H](Nc6cccc7c6n(C)c(=O)n7C6CCC(=O)NC6=O)CC5)C4)CC3)nc(Nc3ccccc3F)c21` (mixture of isomers) [Example 143, (3RS)-3-(3-methyl-2-oxo-4-{[(1R,4R)-4-[(3S)-3-[(6-{4-[(2-fluorophenyl)amino]-3-(propan-2-yl)-3H-imidazo[4,5-c]pyridin-6-yl}-2-oxo-1-[(1S,3S)-3-(piperidin-1-yl)cyclobutyl]-1,2-dihydrospiro[indole-3,4′-piperidin]-1′-yl)carbonyl]pyrrolidine-1-carbonyl]cyclohexyl]amino}-2,3-dihydro-1H-1,3-benzodiazol-1-yl)piperidine-2,6-dione], the DC50 was less than 100 nM and the maximal degradation (Dmax) lay in the range of 50 to 70%.
The matching figures for `CC(C)n1cnc2cc(-c3ccc4c(c3)N([C@H]3C[C@@H](N5CCCCC5)C3)C(=O)C43CCN(C(=O)C4CCN(C(=O)C5CCN(c6ccc(C7CCC(=O)NC7=O)cn6)CC5)CC4)CC3)nc(Nc3ccccc3F)c21` (mixture of isomers) [Example 74, (3RS)-3-[6-(4-{4-[(6-{4-[(2-fluorophenyl)amino]-3-(propan-2-yl)-3H-imidazo[4,5-c]pyridin-6-yl}-2-oxo-1-[(1S,3S)-3-(piperidin-1-yl)cyclobutyl]-1,2-dihydrospiro[indole-3,4′-piperidin]-1′-yl)carbonyl]piperidine-1-carbonyl}piperidin-1-yl)pyridin-3-yl]piperidine-2,6-dione]: less than 100 nM and more than 85%.
The matching figures for `CC(C)n1cnc2cc(-c3ccc4c(c3)N([C@H]3C[C@@H](N5CCCCC5)C3)C(=O)C43CCN(C(=O)c4ccc(C(=O)NC5CCN(c6ccc7c(c6)C(=O)N(C6CCC(=O)NC6=O)C7=O)CC5)cc4)CC3)nc(NC3CC3)c21` (mixture of isomers) [Example 43, 4-({6-[4-(cyclopropylamino)-3-(propan-2-yl)-3H-imidazo[4,5-c]pyridin-6-yl]-2-oxo-1-[(1S,3S)-3-(piperidin-1-yl)cyclobutyl]-1,2-dihydrospiro[indole-3,4′-piperidin]-1′-yl}carbonyl)-N-(1-{2-[(3RS)-2,6-dioxopiperidin-3-yl]-1,3-dioxo-2,3-dihydro-1H-isoindol-5-yl}piperidin-4-yl)benzamide]: 500 to 1000 nM and 50 to 70%.
The matching figures for `CC(C)n1cnc2cc(-c3ccc4c(c3)N([C@H]3C[C@@H](N5CCCCC5)C3)C(=O)C43CCN(C(=O)C4(O)CCN(C(=O)C5CCN(c6ccc(C7CCC(=O)NC7=O)cc6)CC5)CC4)CC3)nc(NC3CC3)c21` (mixture of isomers) [Example 274, (3RS)-3-(4-{4-[4-({6-[4-(cyclopropylamino)-3-(propan-2-yl)-3H-imidazo[4,5-c]pyridin-6-yl]-2-oxo-1-[(1S,3S)-3-(piperidin-1-yl)cyclobutyl]-1,2-dihydrospiro[indole-3,4′-piperidin]-1′-yl}carbonyl)-4-hydroxypiperidine-1-carbonyl]piperidin-1-yl}phenyl)piperidine-2,6-dione]: less than 100 nM and 70 to 85%.

The values above are taken from patent publication US12091426B2, “Bifunctional degraders of hematopoietic progenitor kinase and therapeutic uses thereof” (Nurix Therapeutics, Inc., priority 2021, dated 2024).
